Legend:
Phytophthora infestans = type: in vivo; details: 200 ppm; tomato leaf disks; preventative, inoculated 1 day after application; assessed 5-7 days after application
Pythium ultimum = test: Pythium ultimum/Liquid Culture (Seedling Damping Off); type: cell-based; details: Globisporangium ultimum, read-out: control of Pythium ultimum (inhibition of growth, photometric)
Plasmopara viticola = type: in vivo; details: 200 ppm; grape vine leaf disks; preventative, inoculated 1 day after application; assessed 6-8 days after application

SMILES | control of Phytophthora infestans (percent disease control compared to untreated) (Phytophthora infestans) | inhibition at 20 ppm (Pythium ultimum) | control of Plasmopara viticola (percent disease control compared to untreated) (Plasmopara viticola)
COC(=O)Nc1ccc(-c2cnc3ccc(C(=O)N(Cc4ccco4)c4ccc(Cl)cc4)cn23)cn1 [Compound 6, methyl N-[5-[6-[(4-chlorophenyl)-(2-furylmethyl)carbamoyl]imidazo[1,2-a]pyridin-3-yl]-2-pyridyl]carbamate] | at least 80% | ≥ 80% | 
COC(=O)Nc1ccc(-c2cnc3ccc(C(=O)N(Cc4ccccc4)c4ccc(F)cc4)cn23)cn1 [Compound 7, methyl N-[5-[6-[benzyl-(4-fluorophenyl)carbamoyl]imidazo[1,2-a]pyridin-3-yl]-2-pyridyl]carbamate] |  | ≥ 80% | 
COC(=O)Nc1ccc(-c2cnc3c(C)cc(C(=O)N(Cc4cnn(C)c4)c4ccc(F)c(OC)c4)cn23)cn1 [Compound 1, methyl N-[5-[6-[(4-fluoro-3-methoxy-phenyl)-[(1-methylpyrazol-4-yl)methyl]carbamoyl]-8-methyl-imidazo[1,2-a]pyridin-3-yl]-2-pyridyl]carbamate] | at least 80% | ≥ 80% | at least 80%
COC(=O)Nc1ccc(-c2cnc3ccc(C(=O)N(Cc4cnn(C)c4)c4ccc(F)cc4)cn23)cn1 [Compound 8, methyl N-[5-[6-[(4-fluorophenyl)-[(1-methylpyrazol-4-yl)methyl]carbamoyl]imidazo[1,2-a]pyridin-3-yl]-2-pyridyl]carbamate] | at least 80% | ≥ 80% | at least 80%
COC(=O)Nc1ccc(-c2cnc3ccc(C(=O)N(Cc4cnn(C)c4)c4ccc(F)c(OC)c4)cn23)cn1 [Compound 2, methyl N-[5-[6-[(4-fluoro-3-methoxy-phenyl)-[(1-methylpyrazol-4-yl)methyl]carbamoyl]imidazo[1,2-a]pyridin-3-yl]-2-pyridyl]carbamate] | at least 80% | ≥ 80% | at least 80%

— patent US20260293899A1 (priority 2023, published 2026)
